Measurements from patent US20230293535A1, “ERBB/BTK INHIBITORS” (Dizal (Jiangsu) Pharmaceutical Co., Ltd., priority 2018, published 2023).
Structures can show the parent of a compound that is named as a salt. Where two headings read alike, the source gives them in different places.

How the values were obtained:
Format in all cases: cell-based
[1] = molecular target: T1, human EGFR exon 20 H773_V774insNPH (Homo sapiens, UniProt P00533, INS773NPH); experiment: EGFR Exon20 NPH insertion cellular phosphorylation inhibition (MSD pEGFR Y1068/total EGFR); details: Ba/F3 EGFR NPH ins cells, 4 h compound, p-EGFR(Y1068)/total EGFR;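 further: IL3-independent Ba/F3 cells with constitutively phosphorylated EGFR, compound exposure at 37 °C under 5% CO2, electrochemiluminescent MSD measurement of the p-EGFR to total EGFR ratio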
T1 construct: host or cells: Ba/F3
T1 sequence (P00533 with tags, fused parts or gaps INS773NPH): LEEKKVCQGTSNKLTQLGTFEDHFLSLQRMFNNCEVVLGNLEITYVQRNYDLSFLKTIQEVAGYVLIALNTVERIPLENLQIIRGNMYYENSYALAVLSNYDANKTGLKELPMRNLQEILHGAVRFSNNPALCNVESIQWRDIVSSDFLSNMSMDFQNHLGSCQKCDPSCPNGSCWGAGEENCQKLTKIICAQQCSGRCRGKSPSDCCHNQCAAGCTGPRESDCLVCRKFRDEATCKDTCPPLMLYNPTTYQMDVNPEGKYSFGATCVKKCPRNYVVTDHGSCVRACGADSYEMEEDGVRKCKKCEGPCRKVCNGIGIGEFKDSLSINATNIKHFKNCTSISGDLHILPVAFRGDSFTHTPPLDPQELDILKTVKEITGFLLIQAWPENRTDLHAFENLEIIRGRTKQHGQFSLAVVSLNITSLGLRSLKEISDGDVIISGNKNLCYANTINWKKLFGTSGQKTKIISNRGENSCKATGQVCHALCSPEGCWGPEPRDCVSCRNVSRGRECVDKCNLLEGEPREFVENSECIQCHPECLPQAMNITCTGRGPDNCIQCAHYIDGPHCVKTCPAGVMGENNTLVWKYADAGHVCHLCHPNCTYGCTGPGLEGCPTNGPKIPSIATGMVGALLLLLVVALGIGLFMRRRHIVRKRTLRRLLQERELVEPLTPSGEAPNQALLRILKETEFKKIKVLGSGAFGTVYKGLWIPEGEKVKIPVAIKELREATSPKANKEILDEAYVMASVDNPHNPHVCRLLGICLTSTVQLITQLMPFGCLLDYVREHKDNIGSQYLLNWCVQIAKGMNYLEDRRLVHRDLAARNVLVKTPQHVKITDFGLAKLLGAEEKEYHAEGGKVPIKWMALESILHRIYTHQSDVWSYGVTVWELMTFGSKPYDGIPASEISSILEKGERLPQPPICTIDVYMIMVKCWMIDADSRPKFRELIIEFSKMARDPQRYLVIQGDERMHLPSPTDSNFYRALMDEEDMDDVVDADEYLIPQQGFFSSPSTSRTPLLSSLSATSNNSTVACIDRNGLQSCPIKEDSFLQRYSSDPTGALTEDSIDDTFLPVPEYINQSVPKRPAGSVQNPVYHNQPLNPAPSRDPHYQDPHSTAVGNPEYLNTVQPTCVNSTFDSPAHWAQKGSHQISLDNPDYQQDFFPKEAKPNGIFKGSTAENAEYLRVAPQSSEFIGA

[2] = molecular target: T2, human EGFR exon 20 V769_D770insASV (Homo sapiens, UniProt P00533, INS769ASV); experiment: EGFR Exon20 ASV insertion cellular phosphorylation inhibition (MSD pEGFR Y1068/total EGFR); details: Ba/F3 EGFR ASV ins cells, 4 h compound, p-EGFR(Y1068)/total EGFR;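 further: electrochemiluminescent readout on an MSD SECTOR Imager, IL3-independent transduced cells in medium with 1% FBS, compound concentration series at 37 °C and 5% CO2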
T2 construct: expressed in transfected cells; host or cells: Ba/F3 (DSMZ ACC-300), lentiviral transduction, puromycin selection, IL3 depletion
T2 sequence (P00533 with tags, fused parts or gaps INS769ASV): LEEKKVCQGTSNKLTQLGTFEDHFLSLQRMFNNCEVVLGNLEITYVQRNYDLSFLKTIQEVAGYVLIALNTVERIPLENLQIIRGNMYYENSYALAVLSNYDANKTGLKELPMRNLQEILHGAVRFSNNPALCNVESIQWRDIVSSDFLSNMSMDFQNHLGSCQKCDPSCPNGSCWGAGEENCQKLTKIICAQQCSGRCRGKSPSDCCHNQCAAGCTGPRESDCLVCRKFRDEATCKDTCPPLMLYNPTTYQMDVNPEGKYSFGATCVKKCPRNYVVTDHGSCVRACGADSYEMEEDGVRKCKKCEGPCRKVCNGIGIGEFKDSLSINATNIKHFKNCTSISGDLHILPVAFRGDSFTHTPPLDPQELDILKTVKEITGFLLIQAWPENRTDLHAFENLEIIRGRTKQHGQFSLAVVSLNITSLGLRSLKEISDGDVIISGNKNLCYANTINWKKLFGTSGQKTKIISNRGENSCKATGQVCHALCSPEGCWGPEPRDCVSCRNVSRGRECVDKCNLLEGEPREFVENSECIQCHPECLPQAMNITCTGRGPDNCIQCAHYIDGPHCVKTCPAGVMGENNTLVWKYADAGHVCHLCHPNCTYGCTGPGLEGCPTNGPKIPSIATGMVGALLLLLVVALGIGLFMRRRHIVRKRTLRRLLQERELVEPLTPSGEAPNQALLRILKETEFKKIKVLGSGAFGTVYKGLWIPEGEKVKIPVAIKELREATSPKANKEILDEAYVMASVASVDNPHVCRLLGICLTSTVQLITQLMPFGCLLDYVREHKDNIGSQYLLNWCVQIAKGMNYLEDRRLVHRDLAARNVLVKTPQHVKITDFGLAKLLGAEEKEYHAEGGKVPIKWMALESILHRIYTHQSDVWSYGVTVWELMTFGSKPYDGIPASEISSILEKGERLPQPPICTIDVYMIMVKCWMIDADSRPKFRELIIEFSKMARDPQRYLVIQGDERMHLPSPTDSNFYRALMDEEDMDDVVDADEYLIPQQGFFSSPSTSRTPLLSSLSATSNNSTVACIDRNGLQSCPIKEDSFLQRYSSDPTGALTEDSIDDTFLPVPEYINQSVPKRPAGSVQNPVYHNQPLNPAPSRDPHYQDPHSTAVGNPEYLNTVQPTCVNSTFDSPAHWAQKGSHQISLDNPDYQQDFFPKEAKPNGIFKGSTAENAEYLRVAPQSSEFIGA

EGFR L858R&T790M = molecular target: T3, EGFR L858R&T790M (Homo sapiens, UniProt P00533, L858R/T790M); experiment: EGFR L858R and T790M cellular phosphorylation inhibition in NCI-H1975 (MSD); details: NCI-H1975 cells, 4 h compound, p-EGFR(Y1068)/total EGFR; read-out: EGFR L858R and T790M mutation IC50;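 further: phosphorylated and total EGFR detected by electrochemiluminescence, cells exposed to compound in medium containing 1% FBS at 37 °C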
T3 construct: host or cells: NCI-H1975
T3 sequence (P00533 25-1210 T790M/L858R): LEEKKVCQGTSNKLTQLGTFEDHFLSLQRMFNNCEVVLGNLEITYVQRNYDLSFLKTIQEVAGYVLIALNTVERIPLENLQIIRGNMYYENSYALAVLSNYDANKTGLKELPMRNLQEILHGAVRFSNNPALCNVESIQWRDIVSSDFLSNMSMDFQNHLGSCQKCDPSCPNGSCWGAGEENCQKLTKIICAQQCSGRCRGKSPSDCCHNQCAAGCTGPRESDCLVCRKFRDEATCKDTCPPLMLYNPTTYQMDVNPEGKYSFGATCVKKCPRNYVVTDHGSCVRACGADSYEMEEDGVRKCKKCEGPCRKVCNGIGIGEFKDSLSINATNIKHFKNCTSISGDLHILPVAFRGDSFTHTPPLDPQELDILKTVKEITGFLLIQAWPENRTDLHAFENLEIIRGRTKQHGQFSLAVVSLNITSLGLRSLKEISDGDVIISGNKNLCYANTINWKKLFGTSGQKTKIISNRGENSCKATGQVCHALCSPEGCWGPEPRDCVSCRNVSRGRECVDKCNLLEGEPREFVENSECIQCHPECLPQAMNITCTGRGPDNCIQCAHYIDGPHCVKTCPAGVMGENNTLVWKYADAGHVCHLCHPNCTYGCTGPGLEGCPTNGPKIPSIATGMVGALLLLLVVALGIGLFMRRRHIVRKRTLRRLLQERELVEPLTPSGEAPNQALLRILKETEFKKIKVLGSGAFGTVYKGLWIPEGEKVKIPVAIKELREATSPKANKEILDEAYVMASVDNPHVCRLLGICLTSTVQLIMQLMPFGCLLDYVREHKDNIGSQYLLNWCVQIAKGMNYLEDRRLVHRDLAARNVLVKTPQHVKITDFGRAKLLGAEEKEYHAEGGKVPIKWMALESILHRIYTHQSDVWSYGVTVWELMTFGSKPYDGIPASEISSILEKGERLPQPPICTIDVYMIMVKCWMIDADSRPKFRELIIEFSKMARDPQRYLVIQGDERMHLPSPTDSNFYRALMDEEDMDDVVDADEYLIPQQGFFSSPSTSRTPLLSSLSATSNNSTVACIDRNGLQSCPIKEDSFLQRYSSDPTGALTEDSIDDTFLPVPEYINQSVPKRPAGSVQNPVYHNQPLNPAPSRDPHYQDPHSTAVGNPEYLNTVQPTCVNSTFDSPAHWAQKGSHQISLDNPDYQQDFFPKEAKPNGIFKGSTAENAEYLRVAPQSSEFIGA

[3] = molecular target: T4, human Her2 exon 20 insertion mutation YVMA (Homo sapiens, UniProt P04626, INS775YVMA); experiment: Her2 Exon 20 YVMA insertion cellular phosphorylation inhibition (MSD p-Her2 Y1248/total Her2); details: Her2 YVMAins cells, 4 h compound;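 further: lentivirally transduced NIH-3T3 cells in 1% FBS medium, electrochemiluminescent MSD read-out, graded compound concentrations at 37 °C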
T4 construct: expressed in transfected cells; host or cells: NIH-3T3, lentiviral transduction, puromycin selection
T4 sequence (P04626 with tags, fused parts or gaps INS775YVMA): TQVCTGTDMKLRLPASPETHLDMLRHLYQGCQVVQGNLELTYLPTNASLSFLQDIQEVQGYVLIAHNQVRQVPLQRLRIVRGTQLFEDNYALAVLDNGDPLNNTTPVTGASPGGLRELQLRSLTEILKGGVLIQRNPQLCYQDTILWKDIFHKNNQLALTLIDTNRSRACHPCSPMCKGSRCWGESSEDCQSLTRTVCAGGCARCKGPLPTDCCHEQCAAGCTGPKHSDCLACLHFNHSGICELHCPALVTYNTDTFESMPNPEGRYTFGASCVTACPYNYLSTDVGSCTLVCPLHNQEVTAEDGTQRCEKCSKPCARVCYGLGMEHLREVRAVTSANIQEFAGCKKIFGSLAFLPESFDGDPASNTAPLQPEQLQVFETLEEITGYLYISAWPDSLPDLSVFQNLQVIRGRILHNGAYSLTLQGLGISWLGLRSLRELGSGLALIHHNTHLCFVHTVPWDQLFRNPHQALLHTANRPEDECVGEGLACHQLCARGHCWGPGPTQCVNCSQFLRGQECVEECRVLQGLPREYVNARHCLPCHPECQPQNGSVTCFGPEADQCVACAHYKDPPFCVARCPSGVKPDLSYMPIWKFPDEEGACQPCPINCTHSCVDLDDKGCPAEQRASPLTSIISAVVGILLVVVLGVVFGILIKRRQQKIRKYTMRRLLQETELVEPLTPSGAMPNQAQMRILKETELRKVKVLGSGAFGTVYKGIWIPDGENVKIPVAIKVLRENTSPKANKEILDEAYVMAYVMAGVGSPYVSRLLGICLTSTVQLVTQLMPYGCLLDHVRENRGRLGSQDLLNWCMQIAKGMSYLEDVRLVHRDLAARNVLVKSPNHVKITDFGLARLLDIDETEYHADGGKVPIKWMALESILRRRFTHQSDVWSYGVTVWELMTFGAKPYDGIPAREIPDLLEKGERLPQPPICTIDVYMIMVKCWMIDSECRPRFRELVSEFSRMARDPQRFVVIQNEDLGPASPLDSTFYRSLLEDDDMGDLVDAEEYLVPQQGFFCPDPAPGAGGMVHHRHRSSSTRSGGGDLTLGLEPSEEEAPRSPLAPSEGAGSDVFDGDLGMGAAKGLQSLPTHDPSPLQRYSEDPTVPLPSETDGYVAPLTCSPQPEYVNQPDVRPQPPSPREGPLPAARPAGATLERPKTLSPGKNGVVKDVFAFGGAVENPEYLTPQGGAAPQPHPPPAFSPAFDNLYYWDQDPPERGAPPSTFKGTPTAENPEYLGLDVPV

WT EGFR = molecular target: T5, WT EGFR (Homo sapiens, UniProt P00533); experiment: WT EGFR cellular phosphorylation inhibition in A-431 (hEGF stimulated, MSD); details: A431 cells, 4 h compound, then 100 ng/ml hEGF 10 min;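 further: electrochemiluminescence read-out of EGFR Tyr1068 phosphorylation expressed as ratio to total EGFR, cells kept in medium with 1% FBS, compounds tested as a concentration series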
T5 construct: host or cells: A-431

Ba/F3 EGFR NPH ins cells = experiment: Cell proliferation, Ba/F3 EGFR NPH ins (CellTiter-Glo, 72 h); details: Ba/F3 EGFR, 72 h;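 further: IL3-independent cells carrying constitutively phosphorylated EGFR, compound dilution series, viable cells quantified by ATP luminescence, growth relative to DMSO wells after subtracting pre-dosing (day 0) baseline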
Ba/F3 EGFR ASV ins cells = experiment: Cell proliferation, Ba/F3 EGFR ASV ins (CellTiter-Glo, 72 h); details: Ba/F3 EGFR, 72 h;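 further: IL3-independent Ba/F3 cells transduced with EGFR V769_D770insASV, cellular ATP luminescence after compound exposure, growth relative to DMSO control with the day-0 baseline reading subtracted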
[4] = tested on: NCI-H1975 EGFR L858R/T790M cells; experiment: Cell proliferation, NCI-H1975 EGFR L858R/T790M (CellTiter-Glo, 72 h); details: Homo sapiens, NCI-H1975, 72 h;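 further: viable cells quantified by luciferase-based ATP luminescence, proliferation expressed relative to DMSO-treated wells (100%) after subtracting a parallel plate read at the time of dosing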
Description: WT or mutant cells were seeded in 384 well plates at appropriate concentrations with corresponding growth media supplemented with 10% FBS, for each experiment, identical plates were prepared in duplicates, and the plates were incubated overnight. On the next day, one of each duplicated plates was dosed with tested compounds at a series of concentrations, and another one of the duplicated plate was analysied for G0 value. The dosed plates were incubate for another 72 h at 37° C. with 5% CO2 and the number of viable cells in each well of the G0 plates or the dosed plates were measured by CellTiter-Glo® Luminescent Cell Viability Assay (Promega). This assay is a luminescent method for determining the number viable cells through measurement of cellular ATP concentration by detection of luciferase activity. Detection reagents (15 µl) was dispensed into per well, and the plates were incubate for 30 min at room temperature. Then, the luminescence in each well was measured using the Envision plate reader (PerkinElmer). The percentage of proliferation was calculated based on the formula: %Proliferation= 100 × (G3 value of sample well-Go value)/(G3 value of DMSO control-Go value).

[5] = tested on: Her2 exon 20 insertion YVMA transduced NIH-3T3 cell line; experiment: Cell proliferation, Her2 YVMAins NIH-3T3 (CellTiter-Glo, 72 h); details: Mus musculus, NIH3T3, 72 h, Her2 YVMAins cells, 72 h proliferation; read-out: Her2 Exon 20 YVMA insertion GI50;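 further: viable cells quantified by ATP luminescence, growth over a day-zero baseline plate expressed as percent of DMSO control growth, compound dilution series in 10% FBS medium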
WT EGFR cell line A-431 = experiment: Cell proliferation, WT EGFR A431 (CellTiter-Glo, 72 h); details: Homo sapiens, A-431, 72 h;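 further: proliferation from a luminescent ATP viability signal, expressed as 100 × (treated minus time-zero plate) over (DMSO control minus time-zero plate), cells grown with 10% FBS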
OCI-LY-10 cells = experiment: BTK (wt) cell proliferation, OCI-LY-10 (CellTiter-Glo, 72 h); details: Homo sapiens, OCI-Ly10, 72 h, OCI-LY-10 cells, 72 h, CellTiter-Glo; read-out: BTK WT OCI-LY-10 GI50;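 further: viable cells quantified via cellular ATP luminescence, proliferation given as percent of DMSO control after subtracting a duplicate plate read at time of dosing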
TMD-8 cells = experiment: BTK (wt) cell proliferation, TMD-8 (CellTiter-Glo, 72 h); details: Homo sapiens, TMD8, 72 h, TMD-8 cells, 72 h, CellTiter-Glo; read-out: BTK WT TMD-8 GI50;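 further: viable cells quantified by ATP-based luminescence, proliferation expressed as percent of DMSO control after subtracting a time-zero baseline plate read at dosing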
Description: (§1) OCI-LY-10 at 3,750 cells/well, TMD-8 and Ri-1 at 2,000 cells/well, and DB at 1,250 cells/well, respectively, were sorted into 384-well plates in RPMI1640 medium with 10% FBS. After overnight incubation, all cells were incubated with compound at a series of concentrations. Meanwhile, a duplicated plate of each cell line was prepared for measuring G0 value. The dosed plates were further incubated for 72 hours and the number of viable cells was measured by CellTiter-Glo® Luminescent Cell Viability Assay (Promega), a luminescent method for determining the number of viable cells through measurement of cellular ATP concentration using Envision plate reader (PerkinElmer). The percentage of proliferation was calculated as: % Proliferation = 100 × (G3 value of sample well - G0 value)/(G3 value of DMSO control - G0 value).

Ri-1 cells = experiment: BTK (wt) cell proliferation, Ri-1 (CellTiter-Glo, 72 h); details: Ri-1, 72 h, Ri-1 cells, 72 h, CellTiter-Glo; read-out: BTK WT Ri-1 GI50;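 further: viable cells quantified as cellular ATP luminescence, proliferation normalized to a time-zero plate and the DMSO control, compounds tested across a dilution series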
Description: as §1

DB cells = experiment: BTK (wt) cell proliferation, DB (CellTiter-Glo, 72 h); details: Homo sapiens, DB, DB cells, CellTiter-Glo, read-out: Non-BCR activated DB GI50;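 further: DB cells in 384-well plates given a dilution series of compound, viable cells read by ATP luminescence, growth expressed versus DMSO control after subtracting a time-zero plate reading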
[6] = Ba/F3 EGFR NPH ins, 72 h proliferation, read-out: EGFR Exon20 NPH insertion GI50
[7] = Ba/F3 EGFR ASV ins, 72 h proliferation, read-out: EGFR Exon20 ASV insertion GI50
[8] = NCI-H1975, 72 h proliferation, read-out: EGFR L858R and T790M mutation GI50
[9] = A431, 72 h proliferation, read-out: EGFR WT A431 GI50

## C=CC(=O)Nc1cc(Nc2nccc(Nc3cc(Cl)c(Cl)cc3C(C)(C)O)n2)c(OC)cc1N1CC[C@@H]1CN(C)C [Compound 71, (R)-N-(5-(4-(4,5-dichloro-2-(2-hydroxypropan-2-yl)phenylamino)pyrimidin-2-ylamino)-2-(2-((dimethylamino)methyl)azetidin-1-yl)-4-methoxyphenyl)a crylamide]
[1]
  IC50: 51 nM
[2]
  IC50: 31.1 nM
EGFR L858R&T790M
  IC50: 1.3 nM
[3]
  IC50: 19.6 nM
WT EGFR
  IC50: 213 nM
Ba/F3 EGFR NPH ins cells; [6]
  GI50: 74.7 nM
Ba/F3 EGFR ASV ins cells; [7]
  GI50: 89.8 nM
[4]; [8]
  GI50: 8.3 nM
[5]
  GI50: 86.2 nM
WT EGFR cell line A-431; [9]
  GI50: 34.9 nM
OCI-LY-10 cells
  GI50: 12.4 nM
TMD-8 cells
  GI50: 4.8 nM
Ri-1 cells
  GI50: 23.5 nM
DB cells
  GI50: 2950 nM

## C=CC(=O)Nc1cc(Nc2ncnc(Nc3ccccc3C(C)(O)C(F)(F)F)n2)c(OC)cc1N(C)CCN(C)C (stereo not shown) [Compound 66, N-(2-((2-(dimethylamino)ethyl)(methyl)amino)-4-methoxy-5-(4-(2-(1,1,1-trifluoro-2-hydroxypropan-2-yl)phenylamino)-1,3,5-triazin-2-ylamino)phenyl) acrylamide]
[1]
  IC50: 20.8 nM
[2]
  IC50: 9.6 nM
EGFR L858R&T790M
  IC50: 0.6 nM
[3]
  IC50: 8.2 nM
WT EGFR
  IC50: 23.6 nM
Ba/F3 EGFR NPH ins cells; [6]
  GI50: 22.6 nM
Ba/F3 EGFR ASV ins cells; [7]
  GI50: 25.4 nM
[4]; [8]
  GI50: 2.3 nM
[5]
  GI50: 29.1 nM
WT EGFR cell line A-431; [9]
  GI50: 14.9 nM
OCI-LY-10 cells
  GI50: > 3000 nM
TMD-8 cells
  GI50: 582 nM
Ri-1 cells
  GI50: > 3000 nM
DB cells
  GI50: > 3000 nM

## C=CC(=O)Nc1cc(Nc2ncnc(Nc3cc(F)c(F)cc3C(C)(C)O)n2)c(OC)cc1N1CC[C@@H]1CN(C)C [Compound 19, (R)-N-(5-(4-(4,5-difluoro-2-(2-hydroxypropan-2-yl)phenylamino)-1,3,5-triazin-2-ylamino)-2-(2-((dimethylamino)methyl)azetidin-1-yl)-4-methoxyphenyl)acrylamide]
[1]
  IC50: 46.5 nM
[2]
  IC50: 29.7 nM
EGFR L858R&T790M
  IC50: 0.9 nM
[3]
  IC50: 21.3 nM
WT EGFR
  IC50: 29.7 nM
Ba/F3 EGFR NPH ins cells; [6]
  GI50: 80 nM
Ba/F3 EGFR ASV ins cells; [7]
  GI50: 80.9 nM
[4]; [8]
  GI50: 9.5 nM
[5]
  GI50: 163 nM
WT EGFR cell line A-431; [9]
  GI50: 23.1 nM
OCI-LY-10 cells
  GI50: 10.8 nM
TMD-8 cells
  GI50: 13 nM
Ri-1 cells
  GI50: 133 nM
DB cells
  GI50: > 3000 nM

## C=CC(=O)Nc1cc(Nc2ncnc(Nc3cc(F)c(C4CC4)cc3C(C)(C)O)n2)c(OC)cc1N(C)CCN(C)C [Compound 34, N-(5-(4-(4-cyclopropyl-5-fluoro-2-(2-hydroxypropan-2-yl)phenylamino)-1,3,5-triazin-2-ylamino)-2-((2-(dimethylamino)ethyl)(methyl)amino)-4-methoxyphenyl)acrylamide]
[1]
  IC50: 6.2 nM
[2]
  IC50: 4.4 nM
EGFR L858R&T790M
  IC50: 0.5 nM
[3]
  IC50: 4.2 nM
WT EGFR
  IC50: 6 nM
Ba/F3 EGFR NPH ins cells; [6]
  GI50: 16.4 nM
Ba/F3 EGFR ASV ins cells; [7]
  GI50: 17.6 nM
[4]; [8]
  GI50: 1.6 nM
[5]
  GI50: 21.1 nM
WT EGFR cell line A-431; [9]
  GI50: 7.5 nM
OCI-LY-10 cells
  GI50: 7.6 nM
TMD-8 cells
  GI50: 12.3 nM
Ri-1 cells
  GI50: 16.6 nM
DB cells
  GI50: > 3000 nM

## C=CC(=O)Nc1cc(Nc2ncnc(Nc3cc(F)c(F)cc3C(C)(C)O)n2)c(OC)cc1N1CCOC[C@@H]1CN(C)C [Compound 35, (S)-N-(5-(4-(4,5-difluoro-2-(2-hydroxypropan-2-yl)phenylamino)-1,3,5-triazin-2-ylamino)-2-(3-((dimethylamino)methyl)morpholino)-4-methoxyphenyl) acrylamide]
[1]
  IC50: 9.2 nM
[2]
  IC50: 5.4 nM
EGFR L858R&T790M
  IC50: 0.5 nM
[3]
  IC50: 4.7 nM
WT EGFR
  IC50: 13.9 nM
Ba/F3 EGFR NPH ins cells; [6]
  GI50: 22.2 nM
Ba/F3 EGFR ASV ins cells; [7]
  GI50: 24.3 nM
[4]; [8]
  GI50: 1.5 nM
[5]
  GI50: 39.4 nM
WT EGFR cell line A-431; [9]
  GI50: 21.9 nM
OCI-LY-10 cells
  GI50: 986 nM
TMD-8 cells
  GI50: 377 nM
Ri-1 cells
  GI50: 699 nM
DB cells
  GI50: > 3000 nM

## C=CC(=O)Nc1cc(Nc2nccc(Nc3cc(Cl)c(F)cc3C(C)(C)O)n2)c(OC)cc1N1C[C@H](F)C[C@@H]1CN(C)C [Compound 88, N-(5-(4-(5-chloro-4-fluoro-2-(2-hydroxypropan-2-yl)phenylamino)pyrimidin-2-ylamino)-2-((2R,4R)-2-((dimethylamino)methyl)-4-fluoropyrrolidin-1-yl)-4-methoxyphenyl) acrylamide formic acid salt]
[1]
  IC50: 10.1 nM
[2]
  IC50: 7.5 nM
EGFR L858R&T790M
  IC50: 0.5 nM
[3]
  IC50: 4.5 nM
WT EGFR
  IC50: 27.8 nM
Ba/F3 EGFR NPH ins cells; read-out: EGFR Exon20 NPH insertion GI50 (nM)
  GI50: 18.8 nM
Ba/F3 EGFR ASV ins cells; read-out: EGFR Exon20 ASV insertion GI50 (nM)
  GI50: 14 nM
[4]; read-out: EGFR L858R and T790M mutation GI50 (nM)
  GI50: 1.8 nM
[5]
  GI50: 31.2 nM
WT EGFR cell line A-431; read-out: EGFR WT A431 GI50 (nM)
  GI50: 6.9 nM
OCI-LY-10 cells
  GI50: 1.57 nM
TMD-8 cells
  GI50: 6.49 nM
Ri-1 cells
  GI50: 12 nM
DB cells
  GI50: > 3000 nM

## C=CC(=O)Nc1cc(Nc2ncnc(Nc3cc(F)c(F)cc3C(C)(O)CC)n2)c(OC)cc1N1CC[C@@H]2CN(C)C[C@@H]21 (stereo partly drawn) [Compound 47, N-(5-(4-(4,5-difluoro-2-(2-hydroxybutan-2-yl)phenylamino)-1,3,5-triazin-2-ylamino)-4-methoxy-2-((3aR,6aR)-5-methylhexahydropyrrolo[3,4-b]pyrrol-1(2H)-yl)phenyl) acrylamide]
[1]
  IC50: 5.6 nM
[2]
  IC50: 10.1 nM
EGFR L858R&T790M
  IC50: 0.3 nM
[3]
  IC50: 4.4 nM
WT EGFR
  IC50: 23.8 nM
Ba/F3 EGFR NPH ins cells; [6]
  GI50: 27.1 nM
Ba/F3 EGFR ASV ins cells; [7]
  GI50: 22.1 nM
[4]; [8]
  GI50: 1.9 nM
[5]
  GI50: 34.1 nM
WT EGFR cell line A-431; [9]
  GI50: 10.9 nM
OCI-LY-10 cells
  GI50: 775 nM
TMD-8 cells
  GI50: 55.3 nM
Ri-1 cells
  GI50: 208 nM
DB cells
  GI50: > 3000 nM

## C=CC(=O)Nc1cc(Nc2ncnc(Nc3ccc(F)c(F)c3C(C)(C)O)n2)c(OC)cc1N(C)CCN(C)C [Compound 9, N-(5-(4-(3,4-difluoro-2-(2-hydroxypropan-2-yl)phenylamino)-1,3,5-triazin-2-ylamino)-2-((2-(dimethylamino)ethyl)(methyl)amino)-4-methoxyphenyl)ac rylamide]
[1]
  IC50: 51.3 nM
[2]
  IC50: 62.5 nM
EGFR L858R&T790M
  IC50: 2 nM
[3]
  IC50: 13.9 nM
WT EGFR
  IC50: 131 nM
Ba/F3 EGFR NPH ins cells; [6]
  GI50: 180 nM
Ba/F3 EGFR ASV ins cells; [7]
  GI50: 191 nM
[4]; [8]
  GI50: 44.6 nM
[5]
  GI50: 156 nM
WT EGFR cell line A-431; [9]
  GI50: 83.1 nM
OCI-LY-10 cells
  GI50: 309 nM
TMD-8 cells
  GI50: 551 nM
Ri-1 cells
  GI50: 700 nM
DB cells
  GI50: > 3000 nM
